Source: PubChem BioAssay AID330 (DTP/NCI, 2004)
Values joined by “and” are separate entries in the source; they are usually repeats but may differ in a detail not shown here. Identical values can stand only once. Inconclusive results and toxic doses are left out.

Test system: P388 leukemia ip, CD2F1 mice, survival T/C
Assay: NCI In Vivo Anticancer Drug Screen. Data for tumor model P388 Leukemia (intraperitoneal) in CD2F1 (CDF1) mice
Details: endpoint: median survival time, higher = longer survival
Method in brief: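 Mice carrying the transplanted tumor received test compound or vehicle. Survival was recorded in each group, and the value is the treated-group measurement divided by that of the vehicle-treated control group.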

[1] = dose: 100.0 mg/kg/injection, schedule: Q04DX003 (ip), vehicle: saline
[2] = dose: 200.0 mg/kg/injection, schedule: Q04DX003 (ip), vehicle: saline
[3] = dose: 400.0 mg/kg/injection, schedule: Q04DX003 (ip), vehicle: saline
[4] = dose: 50.0 mg/kg/injection, schedule: Q01DX009 (ip), vehicle: saline
[5] = dose: 100.0 mg/kg/injection, schedule: Q01DX009 (ip), vehicle: saline
[6] = dose: 200.0 mg/kg/injection, schedule: Q01DX009 (ip), vehicle: saline
[7] = dose: 50.0 mg/kg/injection, schedule: Q01DX005 (ip), vehicle: saline with Tween-80
[8] = dose: 100.0 mg/kg/injection, schedule: Q01DX005 (ip), vehicle: saline with Tween-80

CCOP(=O)(OCC)/C(C#N)=C\c1ccc(O)c(OC)c1
T/C (dose: 100.0 mg/kg/injection, schedule: Q04DX003 (ip), vehicle: saline with Tween-80): 110 % of control
T/C (dose: 200.0 mg/kg/injection, schedule: Q04DX003 (ip), vehicle: saline with Tween-80): 100 % of control
T/C (dose: 400.0 mg/kg/injection, schedule: Q04DX003 (ip), vehicle: saline with Tween-80): 100 % of control

CCN1CCCC(Nc2cc(C)nc(Nc3nc4cc(Cl)c(Cl)cc4[nH]3)n2)C1 (stereo unspecified)
T/C (dose: 12.5 mg/kg/injection, schedule: Q01DX009 (ip), vehicle: Klucel (hydroxypropylcellulose) (HPC)): 90 % of control

COC(CN(C)CC(OC)OC)OC
T/C [1]: 95 % of control
T/C [2]: 100 % of control
T/C [3]: 100 % of control

C=CC1(C)N=C1N(C)C (stereo unspecified)
T/C [4]: 105 % of control
T/C [5]: 97 % of control
T/C [6]: 96 % of control

CC1(C)CC(O)C2OC2C1 (stereo unspecified)
T/C [7]: 101 % of control
T/C [8]: 108 % of control
T/C (dose: 200.0 mg/kg/injection, schedule: Q01DX005 (ip), vehicle: saline with Tween-80): 106 % of control

CCN1CC2(C)CCC(OC)C34C1[C@H](C(=O)[C@@H]23)[C@]1(O)CC[C@H]2C[C@H]4[C@H]1C(=O)O2 (stereo partly specified)
T/C (dose: 1.0 mg/kg/injection, schedule: Q01DX009 (ip), vehicle: Klucel (hydroxypropylcellulose) (HPC)): 95 % of control
T/C (dose: 2.0 mg/kg/injection, schedule: Q01DX009 (ip), vehicle: Klucel (hydroxypropylcellulose) (HPC)): 96 % of control
T/C (dose: 4.0 mg/kg/injection, schedule: Q01DX009 (ip), vehicle: Klucel (hydroxypropylcellulose) (HPC)): 98 % of control

CCCCCCC1([N+](=O)[O-])CN(C)CC2CCCCN2C1 (stereo unspecified)
T/C (dose: 100.0 mg/kg/injection, schedule: Q04DX002 (ip), vehicle: saline): 109 % of control
T/C (dose: 200.0 mg/kg/injection, schedule: Q04DX002 (ip), vehicle: saline): 97 % of control

COc1cc(C=Nc2cccc(Br)c2)ccc1N(CCCl)CCCl
T/C (dose: 3.3 mg/kg/injection, schedule: Q01DX009 (ip), vehicle: saline with Tween-80): 154 % of control
T/C (dose: 5.0 mg/kg/injection, schedule: Q01DX009 (ip), vehicle: saline with Tween-80): 200 % of control
T/C (dose: 5.56 mg/kg/injection, schedule: Q01DX009 (ip), vehicle: saline with Tween-80): 209 % of control
T/C (dose: 8.33 mg/kg/injection, schedule: Q01DX009 (ip), vehicle: saline with Tween-80): 186 % of control
T/C (dose: 11.0 mg/kg/injection, schedule: Q04DX003 (ip), vehicle: other): 165 % of control
T/C (dose: 12.5 mg/kg/injection, schedule: Q01DX009 (ip), vehicle: saline with Tween-80): 204 % of control and 227 % of control
T/C (dose: 16.5 mg/kg/injection, schedule: Q04DX003 (ip), vehicle: other): 184 % of control
T/C (dose: 18.7 mg/kg/injection, schedule: Q01DX009 (ip), vehicle: saline with Tween-80): 186 % of control
T/C (dose: 25.0 mg/kg/injection, schedule: Q01DX009 (ip), vehicle: saline with Tween-80): 166 % of control
T/C (dose: 25.0 mg/kg/injection, schedule: Q04DX003 (ip), vehicle: other): 230 % of control
T/C (dose: 37.5 mg/kg/injection, schedule: Q04DX003 (ip), vehicle: other): 107 % of control

CCO/C=C/C=C1C(=O)N(C)C(=O)N(C)C1=O
T/C (dose: 25.0 mg/kg/injection, schedule: Q01DX009 (ip), vehicle: saline + Tween-80 + alcohol): 100 % of control and 108 % of control
T/C (dose: 50.0 mg/kg/injection, schedule: Q01DX009 (ip), vehicle: saline + Tween-80 + alcohol): 111 % of control and 118 % of control
T/C (dose: 100.0 mg/kg/injection, schedule: Q01DX009 (ip), vehicle: saline + Tween-80 + alcohol): 108 % of control and 117 % of control
T/C (dose: 200.0 mg/kg/injection, schedule: Q01DX009 (ip), vehicle: saline + Tween-80 + alcohol): 115 % of control and 119 % of control
T/C (dose: 400.0 mg/kg/injection, schedule: Q01DX009 (ip), vehicle: saline + Tween-80 + alcohol): 103 % of control

NC(Cc1cccc(NP(=S)(N2CC2)N2CC2)c1)C(=O)O (stereo unspecified)
T/C (dose: 12.5 mg/kg/injection, schedule: Q04DX003 (ip), vehicle: saline): 109 % of control
T/C (dose: 25.0 mg/kg/injection, schedule: Q04DX003 (ip), vehicle: saline): 118 % of control
T/C [4]: 159 % of control
T/C (dose: 50.0 mg/kg/injection, schedule: Q04DX003 (ip), vehicle: saline with Tween-80): 103 % of control
T/C (dose: 75.0 mg/kg/injection, schedule: Q04DX003 (ip), vehicle: saline with Tween-80): 92 % of control
T/C [5]: 181 % of control
T/C [1]: 183 % of control
T/C [6]: 209 % of control
T/C [2]: 225 % of control
T/C (dose: 264.0 mg/kg/injection, schedule: Q04DX003 (ip), vehicle: saline): 195 % of control
T/C [3]: 245 % of control and 250 % of control

CN(C)CCCNc1ccc(O)c2sc3ccccc3c(=O)c12
T/C (dose: 3.13 mg/kg/injection, schedule: Q01DX009 (ip), vehicle: saline): 101 % of control
T/C (dose: 6.25 mg/kg/injection, schedule: Q01DX009 (ip), vehicle: saline): 103 % of control
T/C (dose: 12.5 mg/kg/injection, schedule: Q01DX009 (ip), vehicle: saline): 103 % of control
T/C (dose: 25.0 mg/kg/injection, schedule: Q01DX009 (ip), vehicle: saline): 100 % of control

NC=NCC(=O)O
T/C [4]: 96 % of control
T/C [5]: 100 % of control
T/C [6]: 99 % of control

Cc1c2c(nn1C)CC(C)(C)OC2=O
T/C (dose: 100.0 mg/kg/injection, schedule: Q01DX001 (ip), vehicle: Klucel (hydroxypropylcellulose) (HPC)): 95 % of control
T/C (dose: 200.0 mg/kg/injection, schedule: Q01DX001 (ip), vehicle: Klucel (hydroxypropylcellulose) (HPC)): 100 % of control
T/C (dose: 400.0 mg/kg/injection, schedule: Q01DX001 (ip), vehicle: Klucel (hydroxypropylcellulose) (HPC)): 101 % of control

COC1=C(C)C(=O)c2c(c(/C=N/NC(N)=S)c(Cl)n2C)C1=O
T/C (dose: 100.0 mg/kg/injection, schedule: Q01DX001 (ip), vehicle: saline with Tween-80): 103 % of control
T/C (dose: 200.0 mg/kg/injection, schedule: Q01DX001 (ip), vehicle: saline with Tween-80): 93 % of control
T/C (dose: 400.0 mg/kg/injection, schedule: Q01DX001 (ip), vehicle: saline with Tween-80): 96 % of control

CC(C)C/C=C/CCCCCCCCCC(=O)NCC(=O)NC1C(C)OC(Nc2ncnc3nc[nH]c23)C(O)C1O (stereo unspecified)
T/C (dose: 0.5 mg/kg/injection, schedule: Q01DX009 (ip), vehicle: water): 112 % of control and 123 % of control (2×)
T/C (dose: 1.0 mg/kg/injection, schedule: Q01DX009 (ip), vehicle: water): 101 % of control and 103 % of control and 121 % of control
T/C (dose: 2.0 mg/kg/injection, schedule: Q01DX009 (ip), vehicle: water): 155 % of control
T/C (dose: 4.0 mg/kg/injection, schedule: Q01DX009 (ip), vehicle: water): 123 % of control and 87 % of control
T/C (dose: 8.0 mg/kg/injection, schedule: Q01DX009 (ip), vehicle: water): 156 % of control and 178 % of control

COc1ccc(OC)c(NC(=O)Nc2ncccn2)c1
T/C (dose: 50.0 mg/kg/injection, schedule: Q01DX009 (ip), vehicle: Klucel (hydroxypropylcellulose) (HPC)): 106 % of control
T/C (dose: 100.0 mg/kg/injection, schedule: Q01DX009 (ip), vehicle: Klucel (hydroxypropylcellulose) (HPC)): 100 % of control
T/C (dose: 200.0 mg/kg/injection, schedule: Q01DX009 (ip), vehicle: Klucel (hydroxypropylcellulose) (HPC)): 103 % of control

CCOC(=O)C(CCC(OCC)OCC)C(=O)OCC
T/C [4]: 103 % of control
T/C [5]: 102 % of control
T/C [6]: 101 % of control

CCN(CC)CCC(=O)c1ccc(Cl)c2ccccc12
T/C (dose: 6.25 mg/kg/injection, schedule: Q01DX005 (ip), vehicle: saline with Tween-80): 101 % of control
T/C (dose: 12.5 mg/kg/injection, schedule: Q01DX005 (ip), vehicle: saline with Tween-80): 93 % of control
T/C (dose: 25.0 mg/kg/injection, schedule: Q01DX005 (ip), vehicle: saline with Tween-80): 99 % of control and 104 % of control
T/C [7]: 109 % of control
T/C [8]: 93 % of control

Cc1ncc(O)c(C(=O)O)c1C(=O)O
T/C (dose: 17.5 mg/kg/injection, schedule: Q01DX005 (ip), vehicle: Klucel (hydroxypropylcellulose) (HPC)): 100 % of control
T/C (dose: 35.0 mg/kg/injection, schedule: Q01DX005 (ip), vehicle: Klucel (hydroxypropylcellulose) (HPC)): 103 % of control
T/C (dose: 70.0 mg/kg/injection, schedule: Q01DX005 (ip), vehicle: Klucel (hydroxypropylcellulose) (HPC)): 100 % of control

CCCCCCNc1nc(NCCCCCC)c2[nH]c(NCCCCCC)nc2n1
T/C [7]: 122 % of control

O=C1c2ccccc2C(=O)c2c(NCC3CCCN4CCCCC34)cccc21 (stereo unspecified)
T/C (dose: 50.0 mg/kg/injection, schedule: Q01DX005 (ip), vehicle: Klucel (hydroxypropylcellulose) (HPC)): 100 % of control
T/C (dose: 100.0 mg/kg/injection, schedule: Q01DX005 (ip), vehicle: Klucel (hydroxypropylcellulose) (HPC)): 98 % of control
T/C (dose: 200.0 mg/kg/injection, schedule: Q01DX005 (ip), vehicle: Klucel (hydroxypropylcellulose) (HPC)): 100 % of control
